The source made the active and inactive calls. The rule behind the calls is not given here. Positions of bridges follow the written chain, without caps; N, C: chain ends. Non-standard residues stand in square brackets, D forms with d. Residues, ends and D or L forms follow the SMILES beside them. R5 = C=CCCC[C@@](C)(N)C(=O)O
Assays:
A549 [1] = test: Antiproliferative activity against human A549 cells assessed as cell death at 1.563 uM incubated for 72 hrs by MTT assay relative to control; assay type: functional
A549 [2] = test: Synergistic antiproliferative activity against human A549 cells assessed as cell death at 12.5 uM incubated for 72 hrs in presence of 12 uM cisplatin by MTT assay (reference value: 66%); assay type: functional
A549 [3] = test: Synergistic antiproliferative activity against human A549 cells assessed as cell death at 3.125 uM incubated for 72 hrs in presence of 6 uM cisplatin by MTT assay (reference value: 46%); assay type: functional
[4] = target: T1, Nuclear factor erythroid 2-related factor 2 (Homo sapiens) (UniProt Q16236); test: Inhibition of human Nrf2 in HEK-293T cells expressing ARE-firefly luciferase and TK-Renilla luciferase at 50 to 100 uM incubated for 16 hrs by Dual-Luciferase reporter based luminometer analysis; assay type: cell-based; details: dose 50-100 µM
T1 sequence (whole entry): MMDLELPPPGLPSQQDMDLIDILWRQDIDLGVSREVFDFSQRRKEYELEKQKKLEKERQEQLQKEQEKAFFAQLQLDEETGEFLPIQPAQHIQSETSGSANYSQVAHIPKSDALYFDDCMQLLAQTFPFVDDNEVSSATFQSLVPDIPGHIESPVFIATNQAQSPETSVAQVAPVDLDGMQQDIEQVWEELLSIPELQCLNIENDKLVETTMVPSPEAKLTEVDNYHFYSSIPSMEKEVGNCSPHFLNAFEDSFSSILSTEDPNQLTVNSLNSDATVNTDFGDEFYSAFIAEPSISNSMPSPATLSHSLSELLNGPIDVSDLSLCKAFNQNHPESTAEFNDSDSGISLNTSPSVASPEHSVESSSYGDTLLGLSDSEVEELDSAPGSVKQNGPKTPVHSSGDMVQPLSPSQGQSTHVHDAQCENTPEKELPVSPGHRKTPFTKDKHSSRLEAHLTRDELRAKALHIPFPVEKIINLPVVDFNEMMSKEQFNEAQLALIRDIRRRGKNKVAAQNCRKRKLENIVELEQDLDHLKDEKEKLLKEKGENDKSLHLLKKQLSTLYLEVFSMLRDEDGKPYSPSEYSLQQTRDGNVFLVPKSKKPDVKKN

A549 [5] = test: Synergistic antiproliferative activity against human A549 cells assessed as reduction in cell growth at 50 uM incubated for 3 days in presence of 6 uM cisplatin and measured every 2 hrs by IncuCyte live-cell imaging assay; assay type: functional, cell-based; details: time 3.0 day
A549 [6] = test: Synergistic antiproliferative activity against human A549 cells assessed as combination index at 12.5 uM incubated for 72 hrs in presence of 12 uM cisplatin by Chou-Talalay method; assay type: functional
A549 [7] = test: Synergistic antiproliferative activity against human A549 cells assessed as combination index at 50 uM incubated for 72 hrs in presence of 6 uM cisplatin by Chou-Talalay method; assay type: functional
A549 [8] = test: Synergistic antiproliferative activity against human A549 cells assessed as cell death at 25 uM incubated for 72 hrs in presence of 12 uM cisplatin by MTT assay (reference value: 66%); assay type: functional
A549 [9] = test: Antiproliferative activity against human A549 cells assessed as cell death at 100 uM incubated for 72 hrs by MTT assay relative to control; assay type: functional
Homo sapiens = organism: Homo sapiens; test: Inhibition of human recombinant His-MBP-tagged Nrf2/recombinant His-tagged MafG heterodimer interaction with 5' FAM-labeled ARE at 0.2 uM preincubated for 5 mins with Nrf2 under shaking condition followed by MafG addition for 5 mins further incubated with ARE and measured after 10 mins by fluorescence polarization assay; details: time 20.0 min
A549 [10] = test: Downregulation of TrxR1 protein expression in human A549 cells at 25 to 50 uM incubated for 72 hrs by Western blot analysis; assay type: functional, cell-based; details: dose 25-50 µM
A549 [11] = test: Synergistic antiproliferative activity against human A549 cells assessed as combination index at 3.125 uM incubated for 72 hrs in presence of 6 uM cisplatin by Chou-Talalay method; assay type: functional
A549 [12] = test: Synergistic antiproliferative activity against human A549 cells assessed as cell death at 12.5 uM incubated for 72 hrs in presence of 6 uM cisplatin by MTT assay (reference value: 46%); assay type: functional
A549 [13] = test: Synergistic antiproliferative activity against human A549 cells assessed as cell death at 50 uM incubated for 72 hrs in presence of 6 uM cisplatin by MTT assay (reference value: 46%); assay type: functional
A549 [14] = test: Downregulation of GCLC mRNA level in human A549 cells at 50 uM incubated for 72 hrs by qPCR assay; assay type: functional, cell-based
A549 [15] = test: Antiproliferative activity against human A549 cells assessed as cell death at 6.25 uM incubated for 72 hrs by MTT assay relative to control; assay type: functional
A549 [16] = test: Synergistic antiproliferative activity against human A549 cells assessed as combination index at 25 uM incubated for 72 hrs in presence of 12 uM cisplatin by Chou-Talalay method; assay type: functional
A549 [17] = test: Synergistic antiproliferative activity against human A549 cells assessed as cell death at 3.125 uM incubated for 72 hrs in presence of 12 uM cisplatin by MTT assay (reference value: 66%); assay type: functional
A549 [18] = test: Downregulation of NQO2 mRNA level in human A549 cells at 50 uM incubated for 72 hrs by qPCR assay; assay type: functional, cell-based
[19] = Hemolytic activity against human red blood cells at 100 uM relative to control; assay type: toxicity, cell-based, Erythrocyte; details: red blood cells (erythrocytes), read-out: Activity
A549 [20] = test: Synergistic antiproliferative activity against human A549 cells assessed as cell death at 1.563 uM incubated for 72 hrs in presence of 6 uM cisplatin by MTT assay (reference value: 46%); assay type: functional
A549 [21] = test: Synergistic antiproliferative activity against human A549 cells assessed as combination index at 100 uM incubated for 72 hrs in presence of 6 uM cisplatin by Chou-Talalay method; assay type: functional
A549 [22] = test: Synergistic antiproliferative activity against human A549 cells assessed as combination index at 50 uM incubated for 72 hrs in presence of 12 uM cisplatin by Chou-Talalay method; assay type: functional
A549 [23] = test: Antiproliferative activity against human A549 cells assessed as cell death at 25 uM incubated for 72 hrs by MTT assay relative to control; assay type: functional
HEK-293T = test: Cytotoxicity against HEK-293T cells assessed as reduction in cell viability; assay type: toxicity, cell-based; details: human
A549 [24] = test: Antiproliferative activity against human A549 cells assessed as cell death at 3.125 uM incubated for 72 hrs by MTT assay relative to control; assay type: functional
A549 [25] = test: Antiproliferative activity against human A549 cells assessed as cell death at 12.5 uM incubated for 72 hrs by MTT assay relative to control; assay type: functional
A549 [26] = test: Synergistic antiproliferative activity against human A549 cells assessed as combination index at 1.563 uM incubated for 72 hrs in presence of 12 uM cisplatin by Chou-Talalay method; assay type: functional
A549 [27] = test: Downregulation of HMOX1 mRNA level in human A549 cells at 50 uM incubated for 72 hrs by qPCR assay; assay type: functional, cell-based
A549 [28] = test: Downregulation of ABCC1 mRNA level in human A549 cells at 50 uM incubated for 72 hrs by qPCR assay; assay type: functional, cell-based
A549 [29] = test: Synergistic antiproliferative activity against human A549 cells assessed as cell death at 100 uM incubated for 72 hrs in presence of 12 uM cisplatin by MTT assay (reference value: 66%); assay type: functional

Which Activity (A549 [1]) does the source give for `CC[C@H](C)[C@H](NC(C)=O)C(=O)N[C@H](C(=O)N[C@@H](CCC(=O)O)C(=O)N[C@@H](CC(C)C)C(=O)N[C@@H](CCC(=O)O)C(=O)N[C@]1(C)CCC/C=C\CCC[C@](C)(C(=O)N[C@@H](CC(C)C)C(=O)N[C@@H](CCCCN)C(=O)N[C@@H](CC(=O)O)C(=O)N[C@@H](CCC(=O)O)C(=O)N[C@@H](CCCCN)C(=O)N[C@@H](CCC(=O)O)C(N)=O)NC(=O)[C@H](CC(=O)O)NC(=O)[C@H](CC(C)C)NC(=O)[C@H](CC(=O)O)NC1=O)C(C)C` (Ac-IVELE[R5]DLD[R5]LKDEKE-NH2; staple (Z) 6-10) here?
The Activity was 4%.

And the Activity (A549 [2])?
Its Activity is 81%.

What about the Activity (A549 [3]) of the same molecule?
Its Activity is 52%.

And the inhibition [4]?
Its inhibition is “Active”.

What about the Activity (A549 [5]) of the same molecule?
The Activity was “Active”.

What about the CI (A549 [6]) of the same molecule?
The CI was 0.51.

What about the CI (A549 [7]) of the same molecule?
Its CI is 0.42.

What about the Activity (A549 [8]) of the same molecule?
Its Activity is 87%.

What about the Activity (A549 [9]) of the same molecule?
Its Activity is 37%.

And the inhibition (Homo sapiens)?
Its inhibition is “Active”.

And the Activity (A549 [10])?
Its Activity is “Active”.

What about the CI (A549 [11]) of the same molecule?
The CI was 0.84.

And the Activity (A549 [12])?
The Activity was 64%.

What about the Activity (A549 [13]) of the same molecule?
The Activity was 74%.

And the Activity (A549 [14])?
Its Activity is “Active”.

What about the Activity (A549 [15]) of the same molecule?
The Activity was 17%.

What about the CI (A549 [16]) of the same molecule?
Its CI is 0.35.

What about the Activity (A549 [17]) of the same molecule?
Its Activity is 71%.

What about the Activity (A549 [18]) of the same molecule?
The Activity was “Active”.

And the hemolysis at 100 µM [19]?
The hemolysis at 100 µM was 0.3%.

What about the Activity (A549 [20]) of the same molecule?
Its Activity is 50%.

What about the CI (A549 [21]) of the same molecule?
The CI was 0.42.

What about the CI (A549 [22]) of the same molecule?
The CI was 0.19.

And the Activity (A549 [23])?
Its Activity is 30%.

What about the Activity (HEK-293T) of the same molecule?
The Activity was “Non-Toxic”.

What about the Activity (A549 [24]) of the same molecule?
The Activity was 12%.

What about the Activity (A549 [25]) of the same molecule?
Its Activity is 24%.

And the CI (A549 [26])?
Its CI is 0.96.

What about the Activity (A549 [27]) of the same molecule?
The Activity was “Active”.

What about the Activity (A549 [28]) of the same molecule?
The Activity was “Active”.

And the Activity (A549 [29])?
The Activity was 100%.

— ChEMBL document CHEMBL5338753, “Stapled Peptides as Direct Inhibitors of Nrf2-sMAF Transcription Factors” (J Med Chem, 2023)
